Results from patent publication US12428380B2 (PSYLO PTY LTD, priority 2023, dated 2025).

What was measured:
Assay type in all cases: cell-based
5-HT2B = biological target: T1, 5-HT2B (Homo sapiens, UniProt P41595); assay: Activation in a similar Ca2+ flux assay at a single concentration, 5-HT2B; details: head prints 10 µM
T1 construct: host or cells: CHO-K1
Experimental: Activity at 5-HT2A, 5-HT2B and 5-HT2C receptors was determined using a FLIPR Ca2+ flux assay at WuXi AppTec Co. Ltd. (Hong Kong) Discovery Biology Unit according to their standard protocols. Briefly, stably transfected cells expressing the receptor of interest (HEK293 for 5-HT2A and 5-HT2C; CHO-K1 for 5-HT2B) were grown and plated in a 384 well plate and incubated at 37° C. and 5% CO2 overnight. A 250 mM stock solution of probenecid in FLIPR calcium assay buffer (10 mL) was freshly prepared and combined with a fluorescent dye (Fluo-4 Direct) to give a final assay concentration of 2.5 mM. Reference compounds were 4-fold serially diluted and the screening compounds were 3-fold serially diluted in 100% DMSO for 10 points using Agilent Bravo, and 750 nL was added to a 384 well compound plate using Echo along with 30 μL assay buffer. The fluorescent dye was then added to the assay plate along with assay buffer to a final volume of 40 μL. The cell plate was incubated for 50 min at 37° C. and 5% CO2 and placed into the FLIPR Tetra along with the compound plate. 10 μL of references and compounds were then transferred from the compound plate into the cell plate and the fluorescent signal was read.
Activation data are provided in a similar assay tested at a single 10 μM concentration.

5-HT2C = biological target: T2, 5-HT2C (Homo sapiens, UniProt P28335); assay: FLIPR Ca2+ flux functional assay, 5-HT2C (HEK293); details: HEK293 cells expressing 5-HT2C; for Emax: HEK293, agonist activity; for EC50: agonist activity
T2 construct: host or cells: HEK293
T2 sequence (P28335 33-458): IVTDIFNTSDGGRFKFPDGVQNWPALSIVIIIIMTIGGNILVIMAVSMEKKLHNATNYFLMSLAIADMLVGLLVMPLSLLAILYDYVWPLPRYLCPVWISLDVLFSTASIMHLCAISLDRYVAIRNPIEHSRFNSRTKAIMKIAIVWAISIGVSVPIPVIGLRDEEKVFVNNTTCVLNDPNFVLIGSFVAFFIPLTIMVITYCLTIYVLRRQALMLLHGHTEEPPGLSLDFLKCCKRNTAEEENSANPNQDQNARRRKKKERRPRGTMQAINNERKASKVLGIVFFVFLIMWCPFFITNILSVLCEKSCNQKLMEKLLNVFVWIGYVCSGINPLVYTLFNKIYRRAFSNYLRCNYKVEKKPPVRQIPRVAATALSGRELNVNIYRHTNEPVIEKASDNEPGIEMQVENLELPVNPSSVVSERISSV

5-HT2A = biological target: T3, 5-HT2A (Homo sapiens, UniProt P28223); assay: FLIPR Ca2+ flux functional assay, 5-HT2A (HEK293); details: HEK293 cells expressing 5-HT2A; for Emax: HEK293, agonist activity; for EC50: agonist activity
T3 construct: host or cells: HEK293
T3 sequence (P28223 whole entry): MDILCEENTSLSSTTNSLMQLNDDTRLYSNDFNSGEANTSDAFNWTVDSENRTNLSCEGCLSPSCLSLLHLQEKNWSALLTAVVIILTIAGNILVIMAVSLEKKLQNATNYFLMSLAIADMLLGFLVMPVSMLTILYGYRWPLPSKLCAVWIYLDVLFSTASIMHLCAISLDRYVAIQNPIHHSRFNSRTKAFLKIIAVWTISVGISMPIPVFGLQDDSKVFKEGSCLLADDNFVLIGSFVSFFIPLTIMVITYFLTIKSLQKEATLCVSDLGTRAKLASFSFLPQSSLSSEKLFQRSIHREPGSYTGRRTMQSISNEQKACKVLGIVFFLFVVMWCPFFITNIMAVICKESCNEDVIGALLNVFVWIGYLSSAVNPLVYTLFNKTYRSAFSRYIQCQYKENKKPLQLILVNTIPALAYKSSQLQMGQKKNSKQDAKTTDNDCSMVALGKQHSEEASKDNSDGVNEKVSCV

T1 sequence (P41595 whole entry, species assumed): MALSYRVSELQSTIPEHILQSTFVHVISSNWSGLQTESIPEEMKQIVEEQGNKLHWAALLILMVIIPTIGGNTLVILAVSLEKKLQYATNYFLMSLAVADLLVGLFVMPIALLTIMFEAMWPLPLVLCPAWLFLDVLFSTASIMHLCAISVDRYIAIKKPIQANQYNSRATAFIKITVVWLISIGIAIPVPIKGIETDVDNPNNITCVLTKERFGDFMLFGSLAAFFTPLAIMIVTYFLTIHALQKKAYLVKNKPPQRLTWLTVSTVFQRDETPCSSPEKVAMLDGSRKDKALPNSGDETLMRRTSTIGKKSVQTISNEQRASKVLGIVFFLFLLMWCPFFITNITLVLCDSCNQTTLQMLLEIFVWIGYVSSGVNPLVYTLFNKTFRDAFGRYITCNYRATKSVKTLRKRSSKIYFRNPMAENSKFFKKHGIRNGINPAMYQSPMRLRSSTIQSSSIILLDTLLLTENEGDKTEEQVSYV

SMILES	5-HT2B % Activation @ 10 µM (5-HT2B) [%]	Emax (5-HT2C) [%]	EC50 (5-HT2C) [µM]	Emax (5-HT2A) [%]	EC50 (5-HT2A) [µM]
COc1c(F)ccc2[nH]nc(CCN(C)C)c12 [Example A1, 2-(5-fluoro-4-methoxy-1H-indazol-3-yl)-N,N-dimethylethan-1-amine]	21	84	0.00821	82	0.0283
CCN(C)CCc1n[nH]c2ccc(F)c(OC)c12 [Example A2, N-ethyl-2-(5-fluoro-4-methoxy-1H-indazol-3-yl)-N-methylethan-1-amine]	57	86	0.0155	87	0.0315
COc1c(F)ccc2[nH]nc(CCN(C)C(C)C)c12 [Example A3, N-(2-(5-fluoro-4-methoxy-1H-indazol-3-yl)ethyl)-N-methylpropan-2-amine]	17	80	0.17	76	0.0965
COc1c(F)ccc2[nH]nc(CCN(C)C3CC3)c12 [Example A4, N-(2-(5-fluoro-4-methoxy-1H-indazol-3-yl)ethyl)-N-methylcyclopropanamine]	2	91	0.0171	67	0.0627
CCN(C)CCc1n[nH]c2cc(F)c(OC)cc12 [Example A6, N-ethyl-2-(6-fluoro-5-methoxy-1H-indazol-3-yl)-N-methylethan-1-amine]	40	101	0.786	86	0.11
COc1cc2c(CCN(C)C(C)C)n[nH]c2cc1F [Example A7, N-(2-(6-fluoro-5-methoxy-1H-indazol-3-yl)ethyl)-N-methylpropan-2-amine]	7	67	4.18	63	0.318
COc1cc2c(CCN(C)C3CC3)n[nH]c2cc1F [Example A8, N-(2-(6-fluoro-5-methoxy-1H-indazol-3-yl)ethyl)-N-methylcyclopropanamine]	6	102	0.507	71	0.208
COc1ccc2[nH]nc(CCN(C)C)c2c1F [Example A9, 2-(4-fluoro-5-methoxy-1H-indazol-3-yl)-N,N-dimethylethan-1-amine]	0	73	1.1	75	0.809
CCN(C)CCc1n[nH]c2ccc(OC)c(F)c12 [Example A10, N-ethyl-2-(4-fluoro-5-methoxy-1H-indazol-3-yl)-N-methylethan-1-amine]	1	68	2.86	69	0.831
COc1ccc2[nH]nc(CCN(C)C(C)C)c2c1F [Example A11, N-(2-(4-fluoro-5-methoxy-1H-indazol-3-yl)ethyl)-N-methylpropan-2-amine]	0	22	> 10	64	1.38
CN(C)CCc1n[nH]c2cccc(F)c12 [Example A13, 2-(4-fluoro-1H-indazol-3-yl)-N,N-dimethylethan-1-amine]	0	48	0.944	55	2.05
CN(C)CCc1n[nH]c2ccc(F)cc12 [Example A17, 2-(5-fluoro-1H-indazol-3-yl)-N,N-dimethylethan-1-amine]	25	80	0.034	82	0.167
CCN(C)CCc1n[nH]c2ccc(F)cc12 [Example A18, N-ethyl-2-(5-fluoro-1H-indazol-3-yl)-N-methylethan-1-amine]	16	79	0.128	55	0.264
CC(C)N(C)CCc1n[nH]c2ccc(F)cc12 [Example A19, N-(2-(5-fluoro-1H-indazol-3-yl)ethyl)-N-methylpropan-2-amine]	1	69	1.53	25	> 10
CN(CCc1n[nH]c2ccc(F)cc12)C1CC1 [Example A20, N-(2-(5-fluoro-1H-indazol-3-yl)ethyl)-N-methylcyclopropanamine]	1	83	0.206	45	0.419
CCN(C)CCc1n[nH]c2cc(F)cc(F)c12 [Example A29, 2-(4,6-difluoro-1H-indazol-3-yl)-N-ethyl-N-methylethan-1-amine]	0	70	1.48	33	0.687
COc1ccccc1CNCCc1n[nH]c2cc(F)cc(F)c12 [Example A33, 2-(4,6-difluoro-1H-indazol-3-yl)-N-(2-methoxybenzyl)ethan-1-amine]	23	90	0.159	91	0.0144
COc1ccccc1CNCCc1n[nH]c2cccc(F)c12 [Example A34, 2-(4-fluoro-1H-indazol-3-yl)-N-(2-methoxybenzyl)ethan-1-amine]	0	84	0.167	86	0.0552
CN(C)CCc1n[nH]c2c(F)cc(F)cc12 [Example A35, 2-(5,7-difluoro-1H-indazol-3-yl)-N,N-dimethylethan-1-amine]	1	54	0.495	72	0.213
CCN(C)CCc1n[nH]c2c(F)cc(F)cc12 [Example A36, 2-(5,7-difluoro-1H-indazol-3-yl)-N-ethyl-N-methylethan-1-amine]	0	55	0.732	70	0.361
CC(C)N(C)CCc1n[nH]c2c(F)cc(F)cc12 [Example A37, N-(2-(5,7-difluoro-1H-indazol-3-yl)ethyl)-N-methylpropan-2-amine]	0	11	> 10	57	0.81
COc1cc(F)cc2[nH]nc(CCN(C)C)c12 [Example A38, 2-(6-fluoro-4-methoxy-1H-indazol-3-yl)-N,N-dimethylethan-1-amine]	0	75	0.203	77	0.075
COc1cc(F)cc2[nH]nc(CCN3CCC3)c12 [Example A41, 3-(2-(azetidin-1-yl)ethyl)-6-fluoro-4-methoxy-1H-indazole]		65	1.42	78	1.07
COc1cc(F)cc2[nH]nc(CCN3CCCC3)c12 [Example A42, 6-fluoro-4-methoxy-3-(2-(pyrrolidin-1-yl)ethyl)-1H-indazole]		89	0.944	81	0.697
COc1ccc(F)c2[nH]nc(CCN3CCCC3)c12 [Example A48, 7-fluoro-4-methoxy-3-(2-(pyrrolidin-1-yl)ethyl)-1H-indazole]		67	0.556	70	0.533
COc1cc(F)c2[nH]nc(CCN3CCCC3)c2c1 [Example A54, 7-fluoro-5-methoxy-3-(2-(pyrrolidin-1-yl)ethyl)-1H-indazole]		38	3.26	75	1.38
COc1cc2c(CCN3CC4CC4C3)n[nH]c2cc1F (stereo not shown) [Example A61, 3-(2-(3-azabicyclo[3.1.0]hexan-3-yl)ethyl)-6-fluoro-5-methoxy-1H-indazole]		21	> 10	67	1.58
Fc1ccc2[nH]nc(CCN3CCC3)c2c1F [Example A72, 3-(2-(azetidin-1-yl)ethyl)-4,5-difluoro-1H-indazole]		37	0.973	78	1.35
COc1cc2c(CCN3CCC4CC43)nn(C)c2cc1F (stereo not shown) [Example A75, 3-(2-(2-azabicyclo[3.1.0]hexan-2-yl)ethyl)-6-fluoro-5-methoxy-1-methyl-1H-indazole]				77	0.0634
